# Experimental data from publication PMC11206828, “Catalytic Differences between Flavohemoglobins of Giardia intestinalis and E. coli” (Pathogens, 2024).
# “Also recorded” adds a separate entry of the source. Where two headings read alike, the source gives them in different places.
# How the values were obtained:
# [1] = target: T1, Giardia flavohemoglobin (gFlHb) (Giardia intestinalis, UniProt E2RTZ4); test: biochemical
# T1 sequence (E2RTZ4 1-458): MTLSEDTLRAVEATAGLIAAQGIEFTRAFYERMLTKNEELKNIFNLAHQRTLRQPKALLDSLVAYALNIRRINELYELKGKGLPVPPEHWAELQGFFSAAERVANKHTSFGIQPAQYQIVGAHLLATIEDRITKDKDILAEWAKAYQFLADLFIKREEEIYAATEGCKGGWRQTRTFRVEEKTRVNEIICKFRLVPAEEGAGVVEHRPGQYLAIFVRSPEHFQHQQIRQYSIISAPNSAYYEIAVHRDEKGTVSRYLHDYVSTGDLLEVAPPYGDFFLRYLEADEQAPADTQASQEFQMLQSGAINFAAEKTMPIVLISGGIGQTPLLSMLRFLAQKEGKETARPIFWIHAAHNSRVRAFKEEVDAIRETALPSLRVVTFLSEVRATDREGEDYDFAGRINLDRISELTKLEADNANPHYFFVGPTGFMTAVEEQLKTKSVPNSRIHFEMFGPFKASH
# Description: To determine NOD activity, Michaelis constant, and enzyme inhibition, rate assays were performed on a World Precision Instruments free radical analyzer (WPI, Sarasota, FL, USA) equipped with an NO-sensitive electrode and a temperature probe, connected to an analog digital converter controlled by Labscribe software, version 4 (iWorx, Dover, NH, USA).
# Assays were conducted on a 6 mL scale in cropped 50 mL Falcon tubes in a buffer containing 0.1 M Bis-Tris (pH 6.5) and 100 μM NADH. To minimize protein adhesion to the walls of the chamber, 0.25 mg/mL bovine serum albumin (BSA; Fisher Scientific, Ottawa, ON, Canada) was added. […] Reactions were run at 37 °C in a stirred cell block heater with a four-placed machined aluminum block that matched the taper of the Falcon tubes. With this block arrangement up to four assay solutions could be warmed to the desired temperature beforehand. Upon thermal equilibration to 37 °C, the NO donor compound PROLI-NONOate (Cayman Chemical, Ann Arbor, MI, USA) prepared in 10 mM NaOH was added; 2 moles of NO are released per mole of donor. At the peak of NO release, which occurred within several seconds, flavohemoglobin and FAD were added to a final concentration of 2 nM and 10 nM, respectively. NOD activity was measured as the initial rate of NO signal decrease over the first 15 to 30 s of the reaction. […] Rate data were fitted to the Michaelis–Menten equation by nonlinear regression using Graphpad Prism software, version 9.4.1 (Dotmatics, Boston MA, USA).
# (§1) The inhibitor was included in the assay solution before the addition of PROLI-NONOate. Inhibitors were also preincubated in the enzyme stock solutions at the same concentration. […] All inhibition experiments were done using the same enzyme preparations. Each assay at a particular concentration of inhibitor was measured in triplicate or more. […] To determine inhibition constants Ki, rate data obtained at different inhibitor concentrations were fit to the equation for non-competitive inhibition nonlinear regression (Equation (1)) using Graphpad Prism software. (1) v=Vmax/(Km,NO+[NO])1+[I]/Ki
# [2] = target: T2, E. coli flavohemoglobin (Hmp) (Escherichia coli, UniProt P24232); test: Nitric oxide dioxygenase (NOD) inhibition assay, Hmp; type: biochemical; details: for Ki / TN (turnover number from the inhibition fit), Hmp: pH 6.5, 37 °C
# Description: as §1
# [3] = target: T1, Giardia flavohemoglobin (gFlHb); details: cited from earlier work
# [4] = target: T2, E. coli flavohemoglobin (Hmp); design: method as in PMID 10777548; details: 37 °C and pH 7; cited from earlier work
# [5] = target: T1, Giardia flavohemoglobin (gFlHb); test: NOD activity and Michaelis constants, gFlHb; type: biochemical; details: pH 6.5, 37 °C
# ferric gFlHb = ferric gFlHb (Giardia intestinalis, UniProt E2RTZ4); details: read-out: Binding constant KD, ferric gFlHb; optical titration, 0.1 M Bis-Tris pH 6.5, 3.5 μM flavohemoglobin, nitrite 0 to 750 μM
# Description: (§2) Titrations of ferric gFlHb and Hmp were performed in 0.1 M Bis-Tris buffer (BioShop, Burlington, ON, Canada) pH 6.5 on a Cary 400 Bio UV-visible spectrophotometer (Agilent Technologies, Mississauga, ON, Canada).
# ferric Hmp = ferric Hmp (Escherichia coli, UniProt P24232); details: optical titration, 0.1 M Bis-Tris pH 6.5
# Description: as §2
# [6] = pH 6.5, 37 °C, 100 μM NADH, 1 μM NO
# [7] = pH 6.5, 37 °C, 100 μM NADH, 1 μM NO, imidazole and nitrite: Ki of the inhibitor-sensitive phase of a biphasic fit, read-out: Nitric oxide dioxygenase inhibition constant Ki, gFlHb
# T2 sequence (P24232 whole entry): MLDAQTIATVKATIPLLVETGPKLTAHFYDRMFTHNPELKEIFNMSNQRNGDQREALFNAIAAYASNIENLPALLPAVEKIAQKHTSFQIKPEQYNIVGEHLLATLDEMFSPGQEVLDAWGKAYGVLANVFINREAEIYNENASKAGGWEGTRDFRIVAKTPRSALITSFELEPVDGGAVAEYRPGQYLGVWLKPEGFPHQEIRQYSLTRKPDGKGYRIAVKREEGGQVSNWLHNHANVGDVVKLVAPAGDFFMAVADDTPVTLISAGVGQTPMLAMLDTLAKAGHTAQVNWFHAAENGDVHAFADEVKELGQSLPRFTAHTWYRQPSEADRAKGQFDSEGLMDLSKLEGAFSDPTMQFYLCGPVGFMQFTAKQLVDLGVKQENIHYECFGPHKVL
# Chain of ferric Hmp (P24232 whole entry): as above
molecule,measurement,setting,value
Cn1ccnc1 [1-methylimidazole],Ki,[1],1200 ± 300 µM
same,Ki,"[1]; Inhibition constant, gFlHb (bound), NOD inhibition, pH 6.5, 37 °C",> 1000 µM
same,"TN (turnover number from the inhibition fit), gFlHb",[1]; [6],25 ± 1 s⁻¹
same,Ki,"[2]; Inhibition constant, Hmp (bound), NOD inhibition",> 1000 µM
same,Ki,"[2]; Nitric oxide dioxygenase inhibition constant Ki, Hmp, 100 μM NADH, 1 μM NO, imidazole: Ki of the inhibitor-sensitive phase of a biphasic fit",1400 ± 250 µM
same,"TN (turnover number from the inhibition fit), Hmp","[2]; 100 μM NADH, 1 μM NO",38 ± 2 s⁻¹
O=O [oxygen],Michaelis constant of gFlHb for oxygen,[3],22 ± 7 µM
same,"Michaelis constants of Hmp (KmNO, KmNADH, KmO2)",[4],approximately 100 μM
"c1c[nH]cn1 [Imidazole, imidazole]","TN (turnover number from the inhibition fit), gFlHb",[1]; [6],22 ± 1 s⁻¹
same,Ki,[1]; [7],20 ± 6 µM
same,"TN (turnover number from the inhibition fit), Hmp","[2]; 100 μM NADH, 1 μM NO",33 ± 1 s⁻¹
same,Ki,"[2]; read-out: Nitric oxide dioxygenase inhibition constant Ki, Hmp, 100 μM NADH, 1 μM NO, imidazole: Ki of the inhibitor-sensitive phase of a biphasic fit",69 ± 10 µM
nitric oxide [NO],"Michaelis constant KmNO, gFlHb","[5]; NADH held at 100 μM, NO up to 3 μM",0.65 ± 0.09 µM
same,"Michaelis constants of Hmp (KmNO, KmNADH, KmO2)",[4],0.28 µM
"O=NO [Nitrite, nitrite]","TN (turnover number from the inhibition fit), gFlHb",[1]; [6],23 ± 1 s⁻¹
same,Ki,[1]; [7],32 ± 12 µM
same,Kd,ferric gFlHb,180 ± 20 µM
same,Optical differences of Hmp in the presence of nitrite (KD),ferric Hmp,too small to permit any such calculation
same,Effect on NOD activity of Hmp,[2]; concentrations up to 2 mM,not significantly affected; also recorded: no significant effect
"NC(=O)C1=CN([C@@H]2O[C@H](COP(=O)(O)OP(=O)(O)OC[C@H]3O[C@@H](n4cnc5c(N)ncnc54)[C@H](O)[C@@H]3O)[C@@H](O)[C@H]2O)C=CC1 [NADH, nicotinamide adenine dinucleotide]","Michaelis constant KmNADH, gFlHb","[5]; NO held at 2 μM, NADH up to 200 μM",22 ± 4 µM
same,"Michaelis constants of Hmp (KmNO, KmNADH, KmO2)",[4],4.8 µM
